Experimental data from patent US20100010219A1, “METHOD FOR PRODUCING PYRROLIDINE COMPOUND” (JAPAN TOBACCO INC., priority 2006, published 2010).
Counter-ions that a name gives are not always drawn.

Biological target: T1, human HSD-1 (recombinant HSD-1) (Homo sapiens, UniProt P28845)
T1 construct: made in house
Test: HSD-1 activity inhibitory action in vitro (SPA, conversion of cortisone to cortisol)
Assay type: biochemical
Details: recombinant human HSD-1 expressed using baculovirus system; 10 nM 3H cortisone, 500 μM NADPH; room temperature 90 to 120 min; read-out: hHSD1 (IC50 (nM))

T1 sequence (P28845 whole entry): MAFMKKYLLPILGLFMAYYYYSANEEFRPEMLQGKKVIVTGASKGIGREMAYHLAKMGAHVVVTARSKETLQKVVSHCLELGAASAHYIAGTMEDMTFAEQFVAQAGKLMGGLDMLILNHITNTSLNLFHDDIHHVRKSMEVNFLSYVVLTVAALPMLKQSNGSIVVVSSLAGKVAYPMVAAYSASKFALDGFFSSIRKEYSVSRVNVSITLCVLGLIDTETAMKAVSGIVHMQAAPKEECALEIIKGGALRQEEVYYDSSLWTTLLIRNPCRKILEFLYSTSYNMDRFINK

SMILES | IC50 [nM]
O=C(CC(F)(F)F)N1CCC(n2ncc(C(=O)N3CC[C@@H](c4ccccc4C(F)(F)F)C3)c2C2CC2)CC1 [Example 73, 1-{5-cyclopropyl-1-[1-(3,3,3-trifluoropropionyl)piperidin-4-yl]-1H-pyrazole-4-carbonyl}-[(S)-3-(2-trifluoromethylphenyl)]pyrrolidine] | < 30
CC(C)(CO)C(=O)N1CCC(n2ncc(C(=O)N3CC[C@@H](c4ccccc4C(F)(F)F)C3)c2C2CC2)CC1 [Example 76, 1-{5-cyclopropyl-1-[1-(3-hydroxy-2,2-dimethylpropionyl)piperidin-4-yl]-1H-pyrazole-4-carbonyl}-[(S)-3-(2-trifluoromethylphenyl)]pyrrolidine] | < 30
CC(C)(N)C(=O)N1CCC(n2ncc(C(=O)N3CC[C@@H](c4ccccc4C(F)(F)F)C3)c2C2CC2)CC1 [Example 79, 1-{1-[1-(2-amino-2-methylpropionyl)piperidin-4-yl]-5-cyclopropyl-1H-pyrazole-4-carbonyl}-[(S)-3-(2-trifluoromethylphenyl)]pyrrolidine hydrochloride] | < 30
O=C(CCCO)N1CCC(n2ncc(C(=O)N3CC[C@@H](c4ccccc4C(F)(F)F)C3)c2C2CC2)CC1 [Example 80, 1-{5-cyclopropyl-1-[1-(4-hydroxybutyryl)piperidin-4-yl]-1H-pyrazole-4-carbonyl}-[(S)-3-(2-trifluoromethylphenyl)]pyrrolidine] | < 30
NCCC(=O)N1CCC(n2ncc(C(=O)N3CC[C@@H](c4ccccc4C(F)(F)F)C3)c2C2CC2)CC1 [Example 83, 1-{1-[1-(3-aminopropionyl)piperidin-4-yl]-5-cyclopropyl-1H-pyrazole-4-carbonyl}-[(S)-3-(2-trifluoromethylphenyl)]pyrrolidine hydrochloride] | < 30
CC(C)[C@H](N)C(=O)N1CCC(n2ncc(C(=O)N3CC[C@@H](c4ccccc4C(F)(F)F)C3)c2C2CC2)CC1 [Example 84, 1-(1-{1-[(S)-2-amino-3-methylbutyryl]piperidin-4-yl}-5-cyclopropyl-1H-pyrazole-4-carbonyl)-[(S)-3-(2-trifluoromethylphenyl)]pyrrolidine hydrochloride] | < 30
CC(C)C(=O)NCC(=O)N1CCC(n2ncc(C(=O)N3CC[C@@H](c4ccccc4C(F)(F)F)C3)c2C2CC2)CC1 [Example 87, 1-{5-cyclopropyl-1-[1-(2-isobutyrylaminoacetyl)piperidin-4-yl]-1H-pyrazole-4-carbonyl}-[(S)-3-(2-trifluoromethylphenyl)]pyrrolidine] | < 30
CS(=O)(=O)NCC(=O)N1CCC(n2ncc(C(=O)N3CC[C@@H](c4ccccc4C(F)(F)F)C3)c2C2CC2)CC1 [Example 90, 1-{5-cyclopropyl-1-[1-(2-methanesulfonylaminoacetyl)piperidin-4-yl]-1H-pyrazole-4-carbonyl}-[(S)-3-(2-trifluoromethylphenyl)]pyrrolidine] | < 30
NC(=O)CN1CCC(n2ncc(C(=O)N3CC[C@@H](c4ccccc4C(F)(F)F)C3)c2C2CC2)CC1 [Example 94, 1-[1-(1-carbamoylmethylpiperidin-4-yl)-5-cyclopropyl-1H-pyrazole-4-carbonyl]-[(S)-3-(2-trifluoromethylphenyl)]pyrrolidine hydrochloride] | < 30
CNC(=O)CN1CCC(n2ncc(C(=O)N3CC[C@@H](c4ccccc4C(F)(F)F)C3)c2C2CC2)CC1 [Example 95, 1-[5-cyclopropyl-1-(1-methylcarbamoylmethylpiperidin-4-yl)-1H-pyrazole-4-carbonyl]-[(S)-3-(2-trifluoromethylphenyl)]pyrrolidine hydrochloride] | < 30
CC(C)(C(N)=O)N1CCC(n2ncc(C(=O)N3CC[C@@H](c4ccccc4C(F)(F)F)C3)c2C2CC2)CC1 [Example 96, 1-{1-[1-(1-carbamoyl-1-methylethyl)piperidin-4-yl]-5-cyclopropyl-1H-pyrazole-4-carbonyl}-[(S)-3-(2-trifluoromethylphenyl)]pyrrolidine hydrochloride] | < 30

Second part, the molecule after the results:

IC50 [nM] | SMILES
< 30 | O=C1CC[C@@H](C(=O)N2CCC(n3ncc(C(=O)N4CC[C@@H](c5ccccc5C(F)(F)F)C4)c3C3CC3)CC2)N1 [Example 74, 1-(5-cyclopropyl-1-{1-[(S)-5-oxopyrrolidine-2-carbonyl]piperidin-4-yl}-1H-pyrazole-4-carbonyl)-[(S)-3-(2-trifluoromethylphenyl)]pyrrolidine]
< 30 | CC(=O)NCCC(=O)N1CCC(n2ncc(C(=O)N3CC[C@@H](c4ccccc4C(F)(F)F)C3)c2C2CC2)CC1 [Example 75, 1-{1-[1-(3-acetylaminopropionyl)piperidin-4-yl]-5-cyclopropyl-1H-pyrazole-4-carbonyl}-[(S)-3-(2-trifluoromethylphenyl)]pyrrolidine]
< 30 | NCC(=O)N1CCC(n2ncc(C(=O)N3CC[C@@H](c4ccccc4C(F)(F)F)C3)c2C2CC2)CC1 [Example 77, 1-{1-[1-(2-aminoacetyl)piperidin-4-yl]-5-cyclopropyl-1H-pyrazole-4-carbonyl}-[(S)-3-(2-trifluoromethylphenyl)]pyrrolidine hydrochloride]
< 30 | O=C(c1cnn(C2CCN(C(=O)C3(CO)CC3)CC2)c1C1CC1)N1CC[C@@H](c2ccccc2C(F)(F)F)C1 [Example 78, 1-{5-cyclopropyl-1-[1-(1-hydroxymethylcyclopropanecarbonyl)piperidin-4-yl]-1H-pyrazole-4-carbonyl}-[(S)-3-(2-trifluoromethylphenyl)]pyrrolidine]
< 30 | CNCC(=O)N1CCC(n2ncc(C(=O)N3CC[C@@H](c4ccccc4C(F)(F)F)C3)c2C2CC2)CC1 [Example 85, 1-{5-cyclopropyl-1-[1-(2-methylaminoacetyl)piperidin-4-yl]-1H-pyrazole-4-carbonyl}-[(S)-3-(2-trifluoromethylphenyl)]pyrrolidine hydrochloride]
< 30 | O=C(NCC(=O)N1CCC(n2ncc(C(=O)N3CC[C@@H](c4ccccc4C(F)(F)F)C3)c2C2CC2)CC1)C1CC1 [Example 88, 1-{1-[1-(2-cyclopropanecarbonylaminoacetyl)piperidin-4-yl]-5-cyclopropyl-1H-pyrazole-4-carbonyl}-[(S)-3-(2-trifluoromethylphenyl)]pyrrolidine]
< 30 | CC(=O)N1CCC[C@H]1C(=O)N1CCC(n2ncc(C(=O)N3CC[C@@H](c4ccccc4C(F)(F)F)C3)c2C2CC2)CC1 [Example 89, 1-(1-{1-[(S)-1-acetylpyrrolidine-2-carbonyl]piperidin-4-yl}-5-cyclopropyl-1H-pyrazole-4-carbonyl)-[(S)-3-(2-trifluoromethylphenyl)]pyrrolidine]
< 30 | CC(=O)N1CCC(C(=O)N2CCC(n3ncc(C(=O)N4CC[C@@H](c5ccccc5C(F)(F)F)C4)c3C3CC3)CC2)CC1 [Example 91, 1-{1-[1-(1-acetylpiperidine-4-carbonyl)piperidin-4-yl]-5-cyclopropyl-1H-pyrazole-4-carbonyl}-[(S)-3-(2-trifluoromethylphenyl)]pyrrolidine]
< 30 | NC(=O)CCC(=O)N1CCC(n2ncc(C(=O)N3CC[C@@H](c4ccccc4C(F)(F)F)C3)c2C2CC2)CC1 [Example 93, 1-{1-[1-(3-carbamoylpropionyl)piperidin-4-yl]-5-cyclopropyl-1H-pyrazole-4-carbonyl}-[(S)-3-(2-trifluoromethylphenyl)]pyrrolidine]
